Reference: patent US20230323296A1, “STEM CELL-LIKE MEMORY T CELLS AND USES THEREOF” (GEORGETOWN UNIVERSITY, priority 2020, published 2023)

How the values were obtained:
[1] = tested on: CD4+ T cells in the tumor microenvironment (TME); assay: In vivo TSCM generation in TC-1 tumor bearing mice (FACS of tumors); settings: MEKi 10 mg/Kg oral gavage, 15 doses
Experimental: Mice were treated and tumors were isolated. The frequency of CD4^+ cells in variously treated mice (UT, untreated; Vax; MEKi, MEK1/2 inhibitor only; and Vax +MEKi, both E7 and MEK inhibitor) were determined. Error bars represent mean±SEM. (^NSnon-significant, *p≤0.05, **p≤0.01). For Vax treated mice, The CTL epitope from HPV16 E749-57 (RAHYNIVTF, 100 μg/mouse) was used mixed with PADRE, a small 13-mer non-natural pan HLA DR-binding sequence that is a potent T helper cell epitope (20 μg/mouse-Celtek Bioscience, Franklin, TN), and QuilA (adjuvant, 10 μg/mouse-Brenntag, Westbury, NY). Two doses of the vaccine were administered subcutaneously (s.c.) every seven days starting at an average tumor volume of 0.07-0.08 cm^3. Three days after the second vaccination, mice were sacrificed and expression of various markers was analyzed in cells from the tumors by flow cytometry
The frequency of CD62L^+CD44^− CD4^+ T cells in variously treated mice as described for FIG. 1A were determined. Error bars represent mean±SEM. (^NSnon-significant, *p≤0.05, **p≤0.01).
TC-1 tumor bearing mice were treated with an MEK inhibitor (MEKi) (10 mg/Kg), for a total of 15 doses, given everyday by oral gavage, starting when tumor reached an average size of 0.05 cm^3. […] The single-cell suspended tumors were labelled with appropriately conjugated fluorophore conjugated antibodies and analyzed by FACS.

[2] = tested on: CD4 cells from the splenocytes of wild type (WT) mice; assay: In vitro assay of TSCM induction in activated CD4 cells (FACS); type: cell-based; settings: TCONV cells activated with IL-2/anti-CD3/anti-CD28, 72 hours, MEKi 1 uM, vs cells activated without MEK1/2 inhibitor; FIG. 2A
Experimental: T conventional (TCONV) cells (from mouse spleen), defined as CD4^+FoxP3^− cells, were activated (Act) by IL-2 with anti-CD3/anti-CD28 in the presence (+) or absence (−) of MEK1/2 inhibitor for 72 hours, and the number of Sca1^+CD62L^+CD44^−CD4^+ T cells was determined by flow cytometry sorting (FACS).
CD4 cells from the splenocytes of wild type (WT) mice were prepared by magnetic purification using Biolegend cell sorting kits, as per the manufacturer's instructions. Purified cells were activated by plating 1×10^6/ml in cell activation medium that contained rIL-2 (100 IU/ml), anti-CD3 (5 ug/ml), anti-CD28 (2.5 ug/ml) and MEKi (1 uM). Appropriate arms (only cell activation and only IL-2 treatment) were also included for valid comparisons. After 72 hours of incubation at 37° C., at 5% CO2 in a humidified incubator, cells were picked up and processed for FACS analysis of TSCM induction.

N#CC(=C(N)Sc1ccc(N)cc1)c1ccccc1C(F)(F)F [MEK1/2 inhibitor]
numbers of CD4+ T cells in the tumor microenvironment (TME) ([1]; FIG. 1A): increases | induction of CD4+ T cells with a naive-like phenotype (CD62L+CD44-) in the TME ([1]; FIG. 1B): significantly enhanced | generation of Sca1+ TNAIVE CD4+ T cells [2]: significantly enhanced
